The target of one experiment is T1, Munc18-1 (Rattus norvegicus, UniProt P61765).
T1 construct: His (C); made in house; host or cells: Escherichia coli Rosetta BL21 (DE3)
The experiment can be described thus: ITC of Mint peptides and Sx1a binding to Munc18-1.

The target of experiment [1] is Munc18-1^Δ317–333 + Mint1. As to the kind of experiment: ITC of Sx1a binding to Munc18-1 hinge-loop deletion mutant in the presence of Mint1 (261–282) peptide. Further details: species or system rat. As to conditions: Table 2; syringe Sx1a + Mint1, cell Munc18-1^Δ317–333 + Mint1; ITC 25 °C. The text has this: As Mint1 binds to Munc18-1 domain 3b, we hypothesized that the perturbed Mint1 interaction on deletion of the distal domain 3a hinge-loop might be due to altered structural dynamics in the combined domain3a/3b module. […] This is in line with the ability to cocrystallize the three proteins when excess Mint1 peptide is present ([47]). […] This has potential implications for a role of Mint proteins in Munc18-1-mediated SNARE assembly, which is a tightly regulated and highly dynamic process.
For ITC, all peptides were weighed and initially dissolved in the working buffer to make a stock concentration of 2 mM. […] GST-Mint1 and all the other proteins used in the experiments were buffer exchanged into 50 mM Tris (pH 8.0) and 200 mM NaCl by gel filtration prior to ITC. […] Mint1 PTB domain binding to the APP and TJAP1 peptides was performed in 50 mM Hepes, 200 mM NaCl, 0.5 mM TCEP, and 5% glycerol at 25 °C with 1 mM peptides titrated into 50 μM Mint1 PTB domain. The binding parameters, equilibrium constant Ka (1/Kd), stoichiometry (n), and the enthalpy (ΔH) were determined by processing the ITC data using ORIGIN 7.0 software. The equation, ΔG = ΔH – TΔS, was used to calculate the Gibbs free energy (ΔG), and all the experiments were performed in triplicate or duplicate to calculate the SEM for thermodynamic parameters.

Results on 3 substances are retold here after paper PMC10820826, “Interrogation and validation of the interactome of neuronal Munc18-interacting Mint proteins with AlphaFold2” (The Journal of Biological Chemistry, 2023).

Ends that are not written are not given here.

T1 sequence (P61765 whole entry): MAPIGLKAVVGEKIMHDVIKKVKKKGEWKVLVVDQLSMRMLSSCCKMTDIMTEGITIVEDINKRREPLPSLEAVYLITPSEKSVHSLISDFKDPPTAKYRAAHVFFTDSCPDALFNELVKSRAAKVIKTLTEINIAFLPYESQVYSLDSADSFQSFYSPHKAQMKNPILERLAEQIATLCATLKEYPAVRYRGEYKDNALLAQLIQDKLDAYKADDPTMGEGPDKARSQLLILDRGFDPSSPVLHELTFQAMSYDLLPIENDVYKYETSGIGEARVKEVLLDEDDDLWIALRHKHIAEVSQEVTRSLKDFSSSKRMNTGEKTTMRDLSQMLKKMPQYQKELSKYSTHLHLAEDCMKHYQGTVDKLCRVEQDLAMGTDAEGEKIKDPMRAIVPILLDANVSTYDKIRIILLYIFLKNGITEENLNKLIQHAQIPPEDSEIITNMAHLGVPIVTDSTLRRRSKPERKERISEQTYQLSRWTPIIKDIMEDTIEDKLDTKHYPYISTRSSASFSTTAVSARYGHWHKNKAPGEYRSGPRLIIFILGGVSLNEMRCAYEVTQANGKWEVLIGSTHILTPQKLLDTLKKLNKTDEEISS

LEDQEEDIDQIVAEIKMELEMEEI [Mint2_2]: the Kd on Munc18-1 came to 200 µM. Take MDSYEQEEDIDQIVAAVKQSMS [Mint1_14]: binding on Munc18-1 was put at a Kd of 216 µM. Turning to “Sx1a: recombinant rat Syntaxin1a (Sx1_1–261-His) expressed in E. coli”, the dissociation constant Kd in experiment [1] is 0.09 µM.

In general, Kd refers to a measure of binding affinity in units of concentration.
